Here are results for nine molecules from patent publication US7402310B2, “Deoxyribonuclease, gene encoding same and use thereof” (priority 2001, dated 2008).

The target in series [1] is T1, DLAD (Mus musculus, UniProt Q9QY48).
T1 construct: These plasmids encode the mature proteins of DLAD and DNase II, respectively, wherein Myc and His-tags are added to their C termini; made in house; host or cells: HeLa S3 cells (human), transient transfection, Ni-NTA purification
T1 sequence (Q9QY48 23-354): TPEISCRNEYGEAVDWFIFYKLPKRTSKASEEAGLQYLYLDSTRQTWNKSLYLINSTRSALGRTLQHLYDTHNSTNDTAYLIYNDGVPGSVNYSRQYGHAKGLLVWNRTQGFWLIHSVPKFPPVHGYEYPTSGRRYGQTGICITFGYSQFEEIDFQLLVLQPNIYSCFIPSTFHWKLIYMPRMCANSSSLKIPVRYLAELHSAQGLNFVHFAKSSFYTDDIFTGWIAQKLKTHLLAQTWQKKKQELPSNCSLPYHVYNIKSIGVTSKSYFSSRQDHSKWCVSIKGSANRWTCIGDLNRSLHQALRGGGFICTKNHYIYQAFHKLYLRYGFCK
The series is described as follows: Sensitivity of DLAD DNase activity against inhibitors. It counts as biochemical. As to conditions: standard conditions: pH 5.2, 45° C., 20 min, plasmid DNA substrate; read-out: IC50, inhibition of DLAD activity. How it is done: In the same manner as in (2) of Example 3, HeLa S3 cells (5×10^6) were transfected with 25 μg of pcmDLAD-Myc-His or pcmDNaseII-Myc-His, individually. These plasmids encode the mature proteins of DLAD and DNase II, respectively, wherein Myc and His-tags are added to their C termini. After incubation of the cells for 48 hr, recombinant DLAD and recombinant DNase II were purified by IMAC using Ni-NTA spin column, in the same manner as in (2) of Example 3. The purified DLAD (or DNase II), which was eluted in 300 μl of elution buffer [50 mM sodium phosphate (pH 8.0) containing 250 mM imidazole and 300 mM NaCl], was dialyzed against 20 mM Mes-NaOH containing 1 mM 2-mercaptoethanol and used in the following assay for enzyme activities. The Sample obtained by treating HeLa S3 cells transfected with empty vector in the same manner was used as a control.
In the following experiments, the assay for DNase activity was performed as below, unless otherwise described. 20 μl of reaction mixture [50 mM Mes-NaOH (pH 5.2), 1 mM 2-mercaptoethanol, 1 unit of enzyme, 500 ng supercoiled or EcoR I-digested linear pBLUESCRIPT KS+ phagemid vector] was prepared on ice and incubated at 45° C. for 20 min. The reaction was terminated with phenol/chloroform and 5 μl aliquot of the reaction mixture was subjected to 1% agarose gel electrophoresis. After ethidium bromide staining, the image was scanned with CCD camera (Atto) under UV transillumination and optical density of the band corresponding to the full length substrate DNA was quantified by densitometry (NIH image 1.60). DNase activity was determined using reduction of the band intensity corresponding to the full length substrate DNA as an index. In the present invention, 1 unit of DLAD and DNase II activities are defined as their amounts required to decrease the band intensity corresponding to 200 ng of the full length substrate DNA under the above-mentioned reaction conditions.
DLAD activities were determined in the presence of various concentrations of DNase inhibitors [MgCl2 (FIG. 2A, ◯), MgSO4 (FIG. 2A, ●), aurintricarboxylic acid (FIG. 2B), G-actin (FIG. 2C), CoCl2 (FIG. 2D, ▪), NiCl2 (FIG. 2D, Δ) and ZnCl2 (FIG. 2D, ●)] under the above-mentioned standard conditions to analyze its sensitivity against the inhibitors. […] In contrast, it is known that there are little differences between these three divalent metal ions in inhibitory effect on DNase II [J. Biochem., 87: 1097-1103 (1980)].

Series [2] concerns the target T1, DLAD. Put plainly: Divalent cation-dependency of DLAD activity (chelators). The class given is biochemical. As to conditions: 1 mM chelator; pH 5.2 and pH 7.2; supercoiled plasmid. How it is done:
(§1) In the same manner as in (2) of Example 3, HeLa S3 cells (5×10^6) were transfected with 25 μg of pcmDLAD-Myc-His or pcmDNaseII-Myc-His, individually. These plasmids encode the mature proteins of DLAD and DNase II, respectively, wherein Myc and His-tags are added to their C termini. After incubation of the cells for 48 hr, recombinant DLAD and recombinant DNase II were purified by IMAC using Ni-NTA spin column, in the same manner as in (2) of Example 3. […]
(§2) In the following experiments, the assay for DNase activity was performed as below, unless otherwise described. […] After ethidium bromide staining, the image was scanned with CCD camera (Atto) under UV transillumination and optical density of the band corresponding to the full length substrate DNA was quantified by densitometry (NIH image 1.60). DNase activity was determined using reduction of the band intensity corresponding to the full length substrate DNA as an index. […]
Using a supercoiled plasmid as a substrate, DLAD activities in the presence and absence of a divalent cation chelator were determined under acidic (50 mM Mes-NaOH, pH 5.2) and neutral (50 mM Mops-NaOH, pH 7.2) conditions, respectively. […]

Series [3] in a line: Characterization of recombinant rat and human DLAD. It counts as biochemical. The following applies: recombinant protein from HeLa S3 cells. The text has this: Using the same strategy as in Example 1, a rat EST clone (GenBank AF178974) encoding the amino acid sequence with homology to the deduced amino acid sequence of human DNase II was identified. Oligonucleotide primers were synthesized based on the nucleotide sequence of this clone, followed by the RACE with liver poly A(+) RNA derived from Wister rat, which is connately pigment-deficient (albino), as a template to clone the full length rat DLAD cDNA. From the sequence analysis by a conventional method, it was deduced that this cDNA contains an ORF encoding 356 amino acids with a signal peptide consisting of 22 amino acids at the N terminus. […] An expression vector encoding rat DLAD with Myc and His-tags at the C terminus (prDLAD-Myc-His) was constructed by the same strategy as in (1) of Example 3. HeLa S3 cells were transfected with this vector to generate a recombinant rat DLAD.
(sequence complementary to the nucleotide sequence of the nucleotide Nos. 973 to 999 of the nucleotide sequence shown in Sequence Listing, SEQ ID NO: 4) were synthesized and, further using the above-mentioned linker primer AP1 together with these primers, RACE was performed with human liver-derived poly A(+) RNA as a template to clone the full length human DLAD cDNA. […]

In series [4] the test system is supercoiled p[…]+ phagemid vector. The series is described as follows: Mode of DNA hydrolysis (end labeling of degraded plasmid). It counts as biochemical. As to conditions: standard conditions. Here is the method: Using a supercoiled pBLUESCRIPT KS+ phagemid vector as a substrate, enzyme reaction of DLAD or DNase II was performed under the above-mentioned standard conditions. After terminating the reaction, contaminants were removed by phenol/chloroform treatment to isolate degraded plasmid DNA. The 3′ ends were labeled in 50 μl of a reaction solution consisting of 20 units of terminal deoxynucleotidyl transferase (Toyobo), 0.83 mCi/ml […], 100 mM sodium cacodylate (pH 7.2), 0.2 mM DTT and 1 mM CoCl2. The 5′ ends were labeled in 50 μl of a reaction solution consisting of 20 units of polynucleotide kinase (Toyobo), 0.83 mCi/ml [γ-^32P]ATP, 50 mM Tris-HCl (pH 8.0), 10 mM MgCl2 and 10 mM 2-mercaptoethanol. The end-labeling treatments were performed as to both DNAs with and without pretreatment with 20 units of calf intestinal alkaline phosphatase (Takara) in the presence of 50 mM Tris-HCl (pH 8.0) and 1 mM MgCl2 to remove the phosphoryl groups in the ends of DNAs, respectively. Unincorporated nucleotides were removed by ethanol precipitation. The labeled DNA was subjected to 1% agarose gel electrophoresis, transferred onto nylon membrane and analyzed with BAS 1500 image analyzer (Fuji Film). […]

Series [5] deals with supercoiled plasmid. The series is described as follows: Active pH range and optimal pH of DNase activity. It counts as biochemical. As to conditions: Mes-NaOH; pH 4.0 to 7.6 examined. How it is done: as §1, §2
Using a supercoiled plasmid as a substrate, DLAD and DNase II activities were determined under the above-mentioned standard conditions except varying kinds of buffers and pH [i.e., acetate-NaOH (pH 4.0 and 4.4), Mes-NaOH (pH 4.8, 5.2, 5.6, 6.0 and 6.4) and Mops-NaOH (pH 6.4, 6.8, 7.2 and 7.6)]. […]

Series [6] in a line: Stability in the medium for HeLa S3 cells.

For `O=S(=O)([O-])[O-].[Mg+2]` [MgSO4], the IC50 in series [1] stood at 7 mM.

With `[Cl-].[Cl-].[Mg+2]` [MgCl2], in series [1], the IC50 was 13 mM.

Take `O=C(O)CN(CCOCCOCCN(CC(=O)O)CC(=O)O)CC(=O)O` [EGTA]: the “Effect of divalent cation chelator on DLAD activity” value in series [2] is “no effect”.

As to `O=C(O)C1=CC(=C(c2ccc(O)c(C(=O)O)c2)c2ccc(O)c(C(=O)O)c2)C=CC1=O` [Aurintricarboxylic acid], the IC50 in series [1] amounted to 0.006 mM.

For `O=C(O)CN(CCN(CC(=O)O)CC(=O)O)CC(=O)O` [EDTA], in series [2], the “Effect of divalent cation chelator on DLAD activity” value is on record as “no effect”.

As to `[Cl-].[Cl-].[Zn+2]` [Zn^2+, ZnCl2], in series [1], the IC50 was 0.2 mM.

B1: human DLAD: recombinant human DLAD, SEQ ID NO: 3, Myc and His-tags at the C terminus (protein, listed as Homo sapiens)
chain: MKQKMMARLLRTSFALLFLGLFGVLGAATISCRNEEGKAVDWFTFYKLPKRQNKESGETGLEYLYLDSTTRSWRKSEQLMNDTKSVLGRTLQQLYEAYASKSNNTAYLIYNDGVPKPVNYSRKYGHTKGLLLWNRVQGFWLIHSIPQFPPIPEEGYDYPPTGRRNGQSGICITFKYNQYEAIDSQLLVCNPNVYSCSIPATFHQELIHMPQLCTRASSSEIPGRLLTTLQSAQGQKFLHFAKSDSFLDGIFAAWMAQRLKTHLLTETWQRKRQELPSNCSLPYHVYNIKAIKLSRHSYFSSYQDHAKWCISQKGTKNRWTCIGDLNRSPHQAFRSGGFICTQNWQIYQAFQGLVLYYESCK
modifications: C-terminal Myc and His tags
Regarding B1, in series [3], the “Properties: active pH range, divalent cation-dependency, mode of DNA cleavage, sensitivity to inhibitors” value was “properties similar to mouse DLAD”.

B2: rat DLAD: recombinant rat DLAD, ORF encoding 356 amino acids, Myc and His-tags at the C terminus (protein, UniProt Q9QZK9 23-356, looked up)
Deoxyribonuclease-2-beta: TPVISCINEDGKAVDWFAFYKLPRRTSRGGTGMGLDYLYLDSTMRTWSKSHHLINSSRSSLGRTLEQLYEAHNAKNDTAYLIYNDAVPASVNYSGNYGHAKGLLVWNRVQGFWLIHSIPKFPPVPEKGYEYPSSGRQYAQSGLCITLKYSQYETIDSQLLVFQPNIYSCFIPNIFRWELIHMPQMCAKSSASKIPSRRLTVLQSAQGLNFLHFAKSTFYTDDIFAAWIAQKLKVHLLVESWQRKNHELPSNCSLPYHVYNIKAIRGPLQSDFPSHHDHSKWCVSTKDSQARWTCIGDLNRSPHQALRSGGFICSKNRYIYQSFDRLVSHYASCN
modifications: C-terminal Myc and His tags
notes: recombinant rat DLAD, ORF encoding 356 amino acids, Myc and His-tags at the C terminus
Regarding B2, the “Properties: active pH range, divalent cation-dependency, mode of DNA cleavage, sensitivity to inhibitors” value in series [3] is given as “properties similar to mouse DLAD”.

B3: DLAD: novel acid DNase cleaving DNA independently from divalent cations; mouse, amino acid Nos. 1 to 332 of SEQ ID NO: 1 (protein, listed as Mus musculus)
chain: MTAKPLRTVLSLLFFALSGVLGTPEISCRNEYGEAVDWFIFYKLPKRTSKASEEAGLQYLYLDSTRQTWNKSLYLINSTRSALGRTLQHLYDTHNSTNDTAYLIYNDGVPGSVNYSRQYGHAKGLLVWNRTQGFWLIHSVPKFPPVHGYEYPTSGRRYGQTGICITFGYSQFEEIDFQLLVLQPNIYSCFIPSTFHWKLIYMPRMCANSSSLKIPVRYLAELHSAQGLNFVHFAKSSFYTDDIFTGWIAQKLKTHLLAQTWQKKKQELPSNCSLPYHVYNIKSIGVTSKSYFSSRQDHSKWCVSIKGSANRWTCIGDLNRSLHQALRGGGFI
Take B3: the “DNA cleavage mode (ends generated)” value in series [4] is on record as 3′-P/5′-OH ends. Besides, the “Optimal pH of DNase activity” value in series [5] stood at 5.2. In series [6], the “Stability in the medium” value is given as “as stable as DNase II”.
